From patent US8772504B2, “Substituted benzoxazole, benzimidazole, oxazolopyridine and imidazopyridine derivatives as gamma secretase modulators” (Janssen Pharmaceuticals, Inc., priority 2009, dated 2014)

How the values were obtained:
[1] = tested on: Aβtotal; experiment: Screening for γ-secretase-modulating activity, Method 2: Aβtotal Alphalisa on SKNBE2 cell supernatant; format: cell-based; conditions: Method 2, Table 3c, SKNBE2 cells carrying APP 695 wild type, overnight incubation
Procedure, shortened: (§1)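 SKNBE2 cells expressing wild-type APP695, plated at 10^4 cells/well with compound at several concentrations and incubated overnight at 37° C. Aβ42 (C-terminal capture, N-terminal biotinylated detection) and Aβtotal (N-terminal/4G8 pair) measured in supernatant by AlphaLISA. IC50 from 4-parameter fit of percent of compound-free control.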

[2] = tested on: Aβ42; experiment: In vivo efficacy Method 1: brain soluble Aβ42 by ELISA; set-up: species or system mouse; conditions: Table 4a, single oral dose, overnight fasted animals, sacrificed after 4 h, soluble fraction of brain homogenates
Procedure, shortened: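 Overnight-fasted rodents or APP transgenic mice given a single oral dose in 20% Captisol or 20% hydroxypropyl β-cyclodextrin and sacrificed after 4 h. Right-hemisphere homogenate high-speed supernatant used: neutralized portion for Aβtotal, Oasis HLB-purified and concentrated eluate for Aβ42, both quantified by ELISA.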

[3] = tested on: Aβ42; experiment: Screening for γ-secretase-modulating activity, Method 2: Aβ42 Alphalisa on SKNBE2 cell supernatant; format: cell-based; conditions: Method 2, Table 3c, SKNBE2 cells carrying APP 695 wild type, overnight incubation
Procedure, shortened: as §1

COc1cc(Nc2cccc3c2nc(-c2ccc(F)cc2)n3C)ccc1-n1cnc(C)c1 [Compound 1]
IC50 ([1]; Homo sapiens): 590 nM | Aβ42 (% Ctrl) _Mean [2]: 57 % Ctrl | IC50 ([3]; Homo sapiens): 16 nM

COc1cc(Nc2cccc3c2nc(-c2ccc(F)cc2)n3C)ccc1-n1cnc(C)n1 [Compound 4]
IC50 ([1]; Homo sapiens): > 10000 nM | Aβ42 (% Ctrl) _Mean [2]: 64 % Ctrl | IC50 ([3]; Homo sapiens): 27 nM

COc1cc(Nc2nccc3c2nc(-c2ccc(F)cc2)n3C)ccc1-n1cnc(C)c1 [Compound 8]
IC50 ([1]; Homo sapiens): > 10000 nM | Aβ42 (% Ctrl) _Mean [2]: 46 % Ctrl | IC50 ([3]; Homo sapiens): 17 nM

COc1nc(Nc2cccc3c2nc(-c2ccc(F)cc2)n3C)ccc1-n1cnc(C)c1 [Compound 15]
IC50 ([1]; Homo sapiens): 7940 nM | Aβ42 (% Ctrl) _Mean [2]: 31 % Ctrl | IC50 ([3]; Homo sapiens): 6 nM

CCn1c(CC2CC2)nc2c(Nc3ccc(-n4cnc(C)c4)c(OC)c3)cccc21 [Compound 36]
IC50 [1]: 7410 nM | Aβ42 (% Ctrl) _Mean [2]: 79 % Ctrl | IC50 [3]: 78 nM

COc1cc(Nc2cccc3c2nc(Oc2ccccc2)n3C)ccc1-n1cnc(C)c1 [Compound 61]
IC50 [1]: 8510 nM | Aβ42 (% Ctrl) _Mean [2]: 89 % Ctrl | IC50 [3]: 141 nM

Cc1cn(-c2ccc(Nc3cccc4c3nc(-c3ccc(F)cc3)n4C)cc2F)cn1 [Compound 67]
IC50 [1]: > 10000 nM | Aβ42 (% Ctrl) _Mean [2]: 71 % Ctrl | IC50 [3]: 36 nM

Cc1ncn(-c2ccc(Nc3cccc4c3nc(-c3ccc(F)cc3)n4C(C)C)cc2)n1.Cl.Cl [Compound 73]
IC50 [1]: > 10000 nM | Aβ42 (% Ctrl) _Mean [2]: 87 % Ctrl | IC50 [3]: 288 nM

COc1cc(Nc2cccc3c2nc(-c2ccc(F)cc2)n3C(C)C)ccc1-n1cnc(C)n1.Cl.Cl [Compound 75]
IC50 [1]: 7760 nM | Aβ42 (% Ctrl) _Mean [2]: 67 % Ctrl | IC50 [3]: 45 nM

Cc1ncn(-c2ccc(Nc3cccc4c3nc(-c3ccc(F)cc3)n4C(C)C)cn2)n1 [Compound 76]
IC50 [1]: > 10000 nM | Aβ42 (% Ctrl) _Mean [2]: 86 % Ctrl | IC50 [3]: 72 nM

COc1cc(Nc2nccc3c2nc(-c2ccc(F)cc2)n3C)ccc1-n1cnc(C)n1 [Compound 92]
IC50 [1]: 4270 nM | Aβ42 (% Ctrl) _Mean [2]: 60 % Ctrl | IC50 [3]: 178 nM

COc1cc(Nc2cc(C(C)C)nc3c2nc(-c2ccc(F)cc2)n3C)ccc1-n1cnc(C)n1 [Compound 110]
IC50 ([1]; Homo sapiens): > 10000 nM | IC50 ([3]; Homo sapiens): 20 nM

COc1cc(-c2nc3c(Nc4ccc(-n5cnc(C)n5)c(OC)c4)nccc3n2C)ccc1Cl [Compound 114]
IC50 ([1]; Homo sapiens): 3890 nM | IC50 ([3]; Homo sapiens): 21 nM

COc1nc(Nc2cc(F)cc3c2nc(-c2ccc(F)cc2)n3C)ccc1-n1cnc(C)c1 [Compound 115]
IC50 [1]: > 10000 nM | Aβ42 (% Ctrl) _Mean [2]: 97 % Ctrl | IC50 [3]: 2 nM

COc1cc(Nc2nccc3c2nc(-c2ccccc2C(F)(F)F)n3C)ccc1-n1cnc(C)n1 [Compound 130]
IC50 [1]: > 10000 nM | Aβ42 (% Ctrl) _Mean [2]: 75 % Ctrl | IC50 [3]: 129 nM

COc1cc(Nc2nc(C)cc3c2nc(-c2ccc(F)cc2)n3C)ccc1-n1cnc(C)n1 [Compound 164]
IC50 [1]: > 10000 nM | Aβ42 (% Ctrl) _Mean [2]: 72 % Ctrl | IC50 [3]: 46 nM
